Active and inactive are the calls of the source. The rule behind the calls is not given here.
System: CCRIS mutagenicity, Ames/micronucleus/aberration tests
Assay: CCRIS mutagenicity studies
[1] = Test System: AMES SALMONELLA TYPHIMURIUM, Strain/Indicator: TA98, Metabolic Activation: NONE, Method: PREINCUBATION
[2] = Test System: AMES SALMONELLA TYPHIMURIUM, Strain/Indicator: TA100, Metabolic Activation: NONE, Method: PREINCUBATION
[3] = Test System: AMES SALMONELLA TYPHIMURIUM, Strain/Indicator: TA100, Metabolic Activation: RAT, LIVER, S-9, AROCLOR 1254, Method: PREINCUBATION
[4] = Test System: AMES SALMONELLA TYPHIMURIUM, Strain/Indicator: TA102, Metabolic Activation: NONE, Method: STANDARD PLATE
[5] = Test System: AMES SALMONELLA TYPHIMURIUM, Strain/Indicator: TA1535, Metabolic Activation: NONE, Method: PREINCUBATION
[6] = Test System: AMES SALMONELLA TYPHIMURIUM, Strain/Indicator: TA1535, Metabolic Activation: RAT, LIVER, S-9, AROCLOR 1254, Method: PREINCUBATION
[7] = Test System: AMES SALMONELLA TYPHIMURIUM, Strain/Indicator: TA1537, Metabolic Activation: NONE, Method: PREINCUBATION
[8] = Test System: AMES SALMONELLA TYPHIMURIUM, Strain/Indicator: TA1537, Metabolic Activation: RAT, LIVER, S-9, AROCLOR 1254, Method: PREINCUBATION
[9] = Test System: AMES SALMONELLA TYPHIMURIUM, Strain/Indicator: TA1538, Metabolic Activation: NONE, Method: PREINCUBATION
[10] = Test System: AMES SALMONELLA TYPHIMURIUM, Strain/Indicator: TA1538, Metabolic Activation: RAT, LIVER, S-9, AROCLOR 1254, Method: PREINCUBATION
[11] = Test System: AMES SALMONELLA TYPHIMURIUM, Strain/Indicator: TA2638, Metabolic Activation: NONE, Method: STANDARD PLATE
[12] = Test System: E. COLI, Strain/Indicator: WP2 (PKM101), Metabolic Activation: NONE, Method: STANDARD PLATE
[13] = Test System: E. COLI, Strain/Indicator: WP2 UVRA (PKM101), Metabolic Activation: NONE, Method: STANDARD PLATE
[14] = Test System: AMES SALMONELLA TYPHIMURIUM, Strain/Indicator: TA98, Metabolic Activation: NONE, Method: STANDARD PLATE
[15] = Test System: AMES SALMONELLA TYPHIMURIUM, Strain/Indicator: TA100, Metabolic Activation: NONE, Method: STANDARD PLATE
[16] = Test System: AMES SALMONELLA TYPHIMURIUM, Strain/Indicator: TA98, Metabolic Activation: RAT, LIVER, S-9, AROCLOR 1254, Method: PREINCUBATION

## C=CC=O
End Point: IN VITRO CHROMOSOMAL ABERRATIONS, Test System: CHINESE HAMSTER OVARY CELLS, Metabolic Activation: NONE
  mutagenic call: inactive; negative
End Point: IN VITRO CHROMOSOMAL ABERRATIONS, Test System: CHINESE HAMSTER OVARY CELLS, Metabolic Activation: RAT, LIVER, S-9, AROCLOR 1254
  mutagenic call: inactive; negative
[1]
  mutagenic call: active; positive
Test System: AMES SALMONELLA TYPHIMURIUM, Strain/Indicator: TA100, Metabolic Activation: GLUTATHIONE, Method: PREINCUBATION
  mutagenic call: active; positive
[2]
  mutagenic call: active; positive
[3]
  mutagenic call: active; positive
[4]
  mutagenic call: inactive; negative
Test System: AMES SALMONELLA TYPHIMURIUM, Strain/Indicator: TA104, Metabolic Activation: GLUTATHIONE, Method: PREINCUBATION
  mutagenic call: active; positive
Test System: AMES SALMONELLA TYPHIMURIUM, Strain/Indicator: TA104, Metabolic Activation: NONE, Method: PREINCUBATION
  mutagenic call: active; positive
[5]
  mutagenic call: inactive; negative
[6]
  mutagenic call: inactive; negative
[7]
  mutagenic call: inactive; negative
[8]
  mutagenic call: inactive; negative
[9]
  mutagenic call: inactive; negative
[10]
  mutagenic call: inactive; negative
[11]
  mutagenic call: active; positive
Test System: CHINESE HAMSTER OVARY, Strain/Indicator: AS52/6-THIOGUANINE, Metabolic Activation: NONE, Method: STANDARD PLATE
  mutagenic call: inactive; negative
Test System: CHINESE HAMSTER OVARY, Strain/Indicator: CHO-K1-BH4 (HGPRT)/6-THIOGUANINE, Metabolic Activation: NONE
  mutagenic call: inactive; negative
Test System: CHINESE HAMSTER OVARY, Strain/Indicator: CHO-K1-BH4 (HGPRT)/6-THIOGUANINE, Metabolic Activation: RAT, LIVER, S-9, AROCLOR 1254
  mutagenic call: inactive; negative
Test System: CHINESE HAMSTER V-79, Strain/Indicator: V-79/6-THIOGUANINE, Metabolic Activation: NONE
  mutagenic call: active; positive
[12]
  mutagenic call: inactive; negative
[13]
  mutagenic call: inactive; negative
Test System: E. COLI, Strain/Indicator: WP2 UVRA, Metabolic Activation: NONE, Method: PREINCUBATION
  mutagenic call: inactive; negative

## CC(=O)OC1Cc2c3ccc4ccccc4c3cc3ccc(C)c1c23 (stereo not drawn)
[14]
  mutagenic call: inactive; negative
[15]
  mutagenic call: active; positive

## C[C@H](CCC(=O)O)[C@H]1CC[C@H]2[C@@H]3CC[C@@H]4CC(=O)CC[C@]4(C)[C@H]3C[C@@H](O)[C@]12C
Test System: AMES SALMONELLA TYPHIMURIUM, Strain/Indicator: TA98, Metabolic Activation: NONE, Method: FLUCTUATION TEST
  mutagenic call: inactive; negative
[1]
  mutagenic call: inactive; negative
Test System: AMES SALMONELLA TYPHIMURIUM, Strain/Indicator: TA98, Metabolic Activation: RAT, LIVER, S-9, PCB, Method: PREINCUBATION
  mutagenic call: inactive; negative
Test System: AMES SALMONELLA TYPHIMURIUM, Strain/Indicator: TA100, Metabolic Activation: NONE, Method: FLUCTUATION TEST
  mutagenic call: inactive; negative

## O=C/C(Br)=C/c1ccccc1
[1]
  mutagenic call: active; positive
Test System: AMES SALMONELLA TYPHIMURIUM, Strain/Indicator: TA98, Metabolic Activation: NONE, Method: PREINCUBATION, LIQUID INCUBATION
  mutagenic call: active; positive
[14]
  mutagenic call: active; positive
[16]
  mutagenic call: active; positive
Test System: AMES SALMONELLA TYPHIMURIUM, Strain/Indicator: TA98, Metabolic Activation: RAT, LIVER, S-9, PCB, Method: STANDARD PLATE
  mutagenic call: active; positive
[2]
  mutagenic call: active; positive
[15]
  mutagenic call: active; positive
[3]
  mutagenic call: inactive; negative
Test System: AMES SALMONELLA TYPHIMURIUM, Strain/Indicator: TA100, Metabolic Activation: RAT, LIVER, S-9, PCB, Method: STANDARD PLATE
  mutagenic call: active; positive
[5]
  mutagenic call: active; positive
Test System: AMES SALMONELLA TYPHIMURIUM, Strain/Indicator: TA1535, Metabolic Activation: NONE, Method: PREINCUBATION, LIQUID INCUBATION
  mutagenic call: active; positive
[6]
  mutagenic call: inactive; negative
[9]
  mutagenic call: active; positive
Test System: AMES SALMONELLA TYPHIMURIUM, Strain/Indicator: TA1538, Metabolic Activation: NONE, Method: PREINCUBATION, LIQUID INCUBATION
  mutagenic call: active; positive
[10]
  mutagenic call: active; positive
Test System: AMES SALMONELLA TYPHIMURIUM, Strain/Indicator: TA2637, Metabolic Activation: NONE, Method: STANDARD PLATE
  mutagenic call: active; positive
Test System: AMES SALMONELLA TYPHIMURIUM, Strain/Indicator: TA2637, Metabolic Activation: RAT, LIVER, S-9, PCB, Method: STANDARD PLATE
  mutagenic call: active; positive

## N[C@@H](CCC(=O)N[C@@H](CS/C(Cl)=C\Cl)C(=O)NCC(=O)O)C(=O)O
Test System: AMES SALMONELLA TYPHIMURIUM, Strain/Indicator: TA2638, Metabolic Activation: NONE, Method: PREINCUBATION
  mutagenic call: active; positive
Test System: AMES SALMONELLA TYPHIMURIUM, Strain/Indicator: TA2638, Metabolic Activation: RAT, KIDNEY, CYTOSOL, Method: PREINCUBATION
  mutagenic call: active; positive
Test System: AMES SALMONELLA TYPHIMURIUM, Strain/Indicator: TA2638, Metabolic Activation: RAT, KIDNEY, MICROSOMES, Method: PREINCUBATION
  mutagenic call: active; positive
Test System: AMES SALMONELLA TYPHIMURIUM, Strain/Indicator: TA2638, Metabolic Activation: RAT, KIDNEY, MITOCHONDRIA, Method: PREINCUBATION
  mutagenic call: active; positive

## O=c1ccc2ccccc2[nH]1
[15]
  mutagenic call: inactive; negative
Test System: AMES SALMONELLA TYPHIMURIUM, Strain/Indicator: TA100, Metabolic Activation: RAT, LIVER, S-9, AROCLOR 1254 (10% OR 20%), Method: STANDARD PLATE
  mutagenic call: inactive; negative

## C[Si](Cl)Cl
Test System: AMES SALMONELLA TYPHIMURIUM, Strain/Indicator: TA98, Metabolic Activation: HAMSTER, LIVER, S-9, AROCLOR 1254, Method: PREINCUBATION
  mutagenic call: inactive; negative
[1]
  mutagenic call: inactive; negative
[16]
  mutagenic call: inactive; negative
Test System: AMES SALMONELLA TYPHIMURIUM, Strain/Indicator: TA100, Metabolic Activation: HAMSTER, LIVER, S-9, AROCLOR 1254, Method: PREINCUBATION
  mutagenic call: inactive; negative
[2]
  mutagenic call: inactive; negative
[3]
  mutagenic call: inactive; negative
Test System: AMES SALMONELLA TYPHIMURIUM, Strain/Indicator: TA1535, Metabolic Activation: HAMSTER, LIVER, S-9, AROCLOR 1254, Method: PREINCUBATION
  mutagenic call: inactive; negative
[5]
  mutagenic call: inactive; negative
[6]
  mutagenic call: inactive; negative
Test System: AMES SALMONELLA TYPHIMURIUM, Strain/Indicator: TA1537, Metabolic Activation: HAMSTER, LIVER, S-9, AROCLOR 1254, Method: PREINCUBATION
  mutagenic call: inactive; negative
[7]
  mutagenic call: inactive; negative
[8]
  mutagenic call: inactive; negative
Test System: AMES SALMONELLA TYPHIMURIUM, Strain/Indicator: TA1538, Metabolic Activation: HAMSTER, LIVER, S-9, AROCLOR 1254, Method: PREINCUBATION
  mutagenic call: inactive; negative
[9]
  mutagenic call: inactive; negative
[10]
  mutagenic call: inactive; negative
Test System: MOUSE LYMPHOMA, Strain/Indicator: L5178Y (TK+/TK-), Metabolic Activation: NONE, Method: SUSPENSION/PLATE
  mutagenic call: inactive; negative. reevaluation of results: negative
Test System: MOUSE LYMPHOMA, Strain/Indicator: L5178Y (TK+/TK-), Metabolic Activation: RAT, LIVER, S-9, AROCLOR 1254, Method: SUSPENSION/PLATE
  mutagenic call: inactive; negative. reevaluation of results: negative

## CCOC(=O)CCl
[4]
  mutagenic call: inactive; negative
[11]
  mutagenic call: inactive; negative
[12]
  mutagenic call: inactive; negative
[13]
  mutagenic call: inactive; negative

Reference: PubChem BioAssay AID1259407 (Chemical Carcinogenesis Research Information System (CCRIS), 2018)
